Columns and labels:
[1] = tested on: MDA-MB-231 xenografts; experiment: MDA-MB-231 xenograft anti-tumor activity; assay type: in vivo, nude mice; details: i.v., 50 mg/kg
Method: (§1) MDA-MB-231 (5 × 10^6 cells) were inoculated into the left abdominal mammary fat pad of 6-week-old female nude mice, and tumor growth was monitored. […] After four weeks of treatment, all mice were sacrificed according to ethical guidelines. Tumors were excised and analyzed. Tumor volume was measured using a Vernier caliper and calculated according to the following formula: π/6 × length × width^2. All animal handling and procedures were approved by the Capital Medical University Institutional Animal Care. Tumor and adjacent tissues were rapidly fixed in 4% paraformaldehyde (Sigma-Aldrich) for at least 24 h and embedded in paraffin for microscopic examination. From the prepared paraffin blocks, 5-μm thick sections were cut and stained with hematoxylin and eosin (H&E) for light microscopic observation. Sections were processed as per standard protocols using 3,3'-diaminobenzidine (DAB) staining. All human and mouse tissues were collected according to protocols approved by the Ethics Committee of Capital Medical University, and informed consent was obtained from all patients.

[2] = tested on: histone deacetylase; experiment: Western blot of acetylated histone H3 and acetylated α-tubulin; assay type: cell-based, human; details: MDA-MB-231 cells, 100 or 200 nM, 24-72 h
Method: Total protein was assessed by sodium dodecyl sulfate-polyacrylamide gel electrophoresis using 10% or 15% gels, followed by immunoblotting with the following antibodies. Anti-glyceraldehyde 3-phosphate dehydrogenase (GAPDH) antibody (AC002) was purchased from ABclonal Technology (Woburn, MA, USA); anti-PLCβ3 antibody (14247) was purchased from Cell Signaling Technology (Danvers, MA, USA); anti-β-actin antibody (ab8226) and anti-histone H3 antibody (ab1791) were purchased from Abcam (Cambridge, UK); anti-ace tubulin antibody (66200-1-lg) was purchased from Proteintech Group (Rosemont, IL, USA); anti-γ-catenin antibody was purchased from BD Biosciences (Franklin Lakes, NJ, USA). The GAPDH and β-actin content were analyzed as the loading control.

[3] = tested on: RGS2 promoter; experiment: qChIP of H3 acetylation; assay type: cell-based; details: MDA-MB-231, T-47D and 4T1 cells
Method: Briefly, the cells were cross-linked with 1% formaldehyde, sonicated, pre-cleared, and incubated with 4 μg of Ace-H3 antibody or IgG, which was followed by the addition of Dynabeads Protein G. Next, the beads were washed with high- and low-salt-concentration buffers, and DNA was eluted and purified using the QIAquick PCR Purification Kit. The amount of the DNA template was analyzed by qPCR using primers specific for five promoter regions.

[4] = Pathological examination (H&E) of main organs; assay type: in vivo, nude mice; details: i.v., 50 mg/kg, every other day for four weeks
Method: as §1

[5] = tested on: primary breast cancer cells; experiment: Intracellular calcium measurement (Fluo-4-AM); assay type: cell-based, human; details: thrombin stimulation
[6] = tested on: Gαq, PLCβ3, PMCA1 and PMCA4b in MDA-MB-231 cells; experiment: Expression of calcium influx and efflux markers (Western blot, RT-qPCR); assay type: cell-based, human
Method: Reverse transcription was performed using the RevertAid First Strand cDNA Synthesis Kit ([…]) according to the manufacturer's instructions. The primers for the detection of target mRNA are shown in Table S2. β-actin was used as an internal reference. The relative expression of target genes was calculated by the 2^-ΔΔCt method.

[7] = tested on: HUVEC; experiment: CCK8 assay IC50; assay type: cell-based, human; details: 72 h, normal cells
Method: (§2) Cell viability was then detected using a CCK8 assay (MedChemExpress, USA) according to the manufacturer's instructions.
(§3) Statistical analyses of all data were performed using GraphPad Prism (version 8.0, Graph Pad Software Inc., San Diego, CA, USA). All the data were analyzed by Student's t-test or one-way ANOVA. The Z-Score was chosen to evaluate the results and experimental deviation. Quantitative data are presented as the mean ± SD. The asterisk (*) denotes statistically significant difference (P < 0.05). IC50 was calculated using a four-parameter fit with variable slope in GraphPad Prism.

[8] = tested on: MDA-MB-231; experiment: CCK8 assay IC50; assay type: cell-based, human; details: Homo sapiens; MDA-MB-231, 72 h, CCK8, value of the text
Method: as §2, §3

[9] = tested on: Primary breast tumor cells; experiment: CCK8 assay IC50; assay type: cell-based, human; details: Homo sapiens, breast cancer, 72 h
Description: (§4) HeLa, MCF-7 and MDA-MB-231 cell lines were purchased from the American Type Culture Collection. MCF-10A, T-47D, PANC-1, A549, HCT-15, Caco-2, SMMC-7721, SH-SY5Y, HUVEC and PC-3 cell lines were obtained from the Chinese Academy of Medical Sciences. MEF was isolated from pregnant mice at 14‒16 days of pregnancy. Primary breast cancer cells were isolated from breast cancer patients. All media including Dulbecco Modified Eagle Medium (DMEM), RPMI 1640 Medium and DMEM/Nutrient Mixture F-12 were supplemented with 10% fetal bovine serum (FBS), 100 units/mL penicillin, and […] streptomycin (Gibco, Waltham, MA, USA). Cells were cultured in a humidified incubator equilibrated with 5% CO2 at 37 °C. Cells were treated for 24-72 h in adherent conditions with compounds from an epigenetic small molecule inhibitor library (L1200, Topscience, Shanghai, China).
as §2
(§5) Statistical analyses of all data were performed using GraphPad Prism (version 8.0, Graph Pad Software Inc., San Diego, CA, USA). All the data were analyzed by Student's t-test or one-way ANOVA. The Z-Score was chosen to evaluate the results and experimental deviation. Quantitative data are presented as the mean ± SD. […] IC50 was calculated using a four-parameter fit with variable slope in GraphPad Prism.

[10] = tested on: MDA-MB-231 cells; experiment: TUNEL assay; assay type: cell-based, human; details: compared to DMSO treatment
Description: Apoptosis was detected using a Cell Death Detection Fluorescein Kit for TUNEL assay (RiboBio, Guangzhou, China) according to the manufacturer's instructions. […] Signals were detected by fluorescence microscopy. Non-apoptotic cells were visualized under a DAPI (4′,6-diamidino-2-phenylindole) filter.

[11] = tested on: breast cancer cells; experiment: Transwell cell invasion assay; assay type: cell-based, human; details: matrigel transwell, P < 0.05
Method: Transwell chamber filters (BD) were coated with Matrigel diluted (1:10) in serum-free medium. […] After treatment, cells were digested and suspended in serum-free media. Cells (8,000 cells per well) were seeded into the upper chamber of the transwell chambers, and the chambers were transferred into 24-well plates containing 500 μl culture medium per well. After 20 h of incubation, cells in the upper chamber were fixed with 4% formaldehyde, washed with PBS, and stained with crystal violet for half an hour. Images of invasive cells were captured using a light microscope.

[12] = tested on: MDA-MB-231 cells; experiment: Intracellular calcium measurement (Fluo-4-AM); assay type: cell-based, human; details: 100 nM or 200 nM for 24 h
Method: After treatment, the cells were digested and seeded in 96-well black plates (Corning Costar, Cambridge, MA, USA) and cultured for 20 h. For measurement of [Ca^2+]i, the cells were labeled with Fluo-4-AM in serum-free medium for half an hour at room temperature. After washing with Dulbecco's Phosphate Buffered Saline (D-PBS), cells were overlaid in Hank's balanced salt solution (5.4 mM KCl, 1 mM MgCl2, 20 mM hydroxyethyl piperazineethanesulfonic acid (HEPES), 120 mM NaCl, 10 mM glucose, 0.2 mM Ethylenebis(oxyethylenenitrilo)tetraacetic acid (EGTA)). Continuous fluorescence intensity was detected after thrombin was added as a calcium agonist by an automated sampler. Response over baseline was assessed as a relative measure of [Ca^2+]i.
As previously stated, studies have shown that the Ca^2+ signals can modulate cancer progression by regulating migration, proliferation, cell stress, and apoptosis.

[13] = tested on: MEF; experiment: CCK8 assay IC50; assay type: cell-based, mouse; details: Mus musculus, normal cells, 72 h
Description: as §4, §2, §5

Compound: CN(C)Cc1c(C(=O)NCCOc2ccc(C(=O)NO)cc2)oc2ccccc12 [PCI-24781]
- Ki-67 staining of tumor tissues [1]: inhibited tumor proliferation
- tumor growth inhibition ([1]; every other day for four weeks, compared to control group, P < 0.0001): 74.6%
- RGS2 IHC staining in tumor tissues ([1]; versus control group): more abundant and more intensely stained
- acetylated histone H3 and acetylated α-tubulin levels [2]: time-dependent and dose-dependent accumulation of acetylated histone H3 (H3) and acetylated α-tubulin
- H3 acetylation at RGS2 promoter regions (qChIP) [3]: strong binding to RGS2 #2 and #3 promoter regions of H3 acetylation
- histological changes in the main organs (heart, liver, lung, spleen, and kidney) [4]: did not exhibit serious histological changes
- amplitude of [Ca^2+]i oscillations [5]: significant decrease in the amplitude
- expression levels of PMCA1 and PMCA4b ([6]; MDA-MB-231, RT-qPCR): not affected
- expression levels of Gαq and PLCβ3 ([6]; MDA-MB-231, Western blot and RT-qPCR): significantly decreased
- IC50 ([7]; Homo sapiens): 4.2 µM
- IC50 [7]: 4.17 µM
- IC50 [8]: 663 nM
- IC50 [9]: 876 nM
- apoptosis (TUNEL) [10]: higher rate of apoptosis
- invasive capacity [11]: significant reduction in the invasive capacity
- influx of intracellular calcium ions induced by thrombin, ionomycin, and carbachol [12]: completely inhibited
- IC50 [13]: 15 µM
